The source of these data is patent publication US5085993A, “Coenzyme-independent L-sorbosone dehydrogenase from Pseudomonas putida” (Hoffmann-La Roche Inc., priority 1987, dated 1992).

Assay [1] relates to coenzyme independent L-sorbosone dehydrogenase of P. putida ATCC 21812. The protocol:
Enzyme assay was carried out at 25° C. by measuring the decrease of absorbance at 600 nm of DCIP spectrophotometrically. One unit of enzyme activity was defined as the amount of enzyme which catalyzed the reduction of 1 μmole of DCIP per minute. The extinction coefficient of DCIP at pH 7.0 was taken as 9.45 mM^-1.
The basal reaction mixture was prepared by mixing 6 ml of 0.1M potassium phosphate buffer (pH 7.0) containing 0.3% Triton X-100, 0.45 ml of 2.5 mM DCIP and 10.35 ml of water. A cuvette with 1 cm light path contained 0.4 ml of basal reaction mixture, 20 μl of 10 mM phenazine methosulfate, 10 μl of enzyme solution and 20 μl of 110 mM L-sorbosone solution. A reference cuvette contained all the reagents except enzyme solution, but 10 μl of water was added instead. The reaction was started by the addition of the substrate.

For assay [2], the system named is coenzyme independent L-sorbosone dehydrogenase from P. putida ATCC 21812. The assay is described as follows: Measurement of the Km value (DCIP/phenazine methosulfate enzyme assay). The format is biochemical, Pseudomonas putida ATCC 21812. Particulars: DCIP and phenazine methosulfate as electron acceptors; 25° C., pH 7.0; read-out: apparent Michaelis constant (Km) for L-sorbosone. The protocol:
In the procedure described under 1) above, the velocities of oxidizing reactions with varying concentrations of L-sorbosone were measured to determine the apparent Michaelis constant (Km) for L-sorbosone. Km value was calculated to be 13±2 mM with DCIP and phenazine methosulfate as electron acceptors.

Assay [3] concerns coenzyme independent L-sorbosone dehydrogenase of P. putida ATCC 21812. The assay is described as follows: Effect of addition of PQQ on the enzyme activity. Type of assay: biochemical, Pseudomonas putida ATCC 21812. Particulars: 0 PQQ = 100. From the text: Significant increase of the enzyme activity was observed by the addition of PQQ.

Where two headings read alike, the source gives them in different places.

Take `O=C(O)CI` [ICH2 COOH, monoiodoacetate]: the “Relative activity (%)” value in assay [1] came out at 88.6%.
As to `O=CC(=O)[C@@H](O)[C@H](O)[C@@H](O)CO` [L-sorbosone], the Km in assay [2] worked out at 13 ± 2 mM.
Consider `[N-]=[N+]=[N-].[Na+]` [NaN3, Sodium azide], for which, in assay [1] (inhibitor 25.0 mM, None = 100.0), the “Relative activity (%)” value is on record as 77.3%.
As to `O=C(O)c1cc(C(=O)O)c2c(n1)C(=O)C(=O)c1cc(C(=O)O)[nH]c1-2` [PQQ, pyrroloquinoline quinone], the Relative enzyme activity stood at 106 in assay [3] (PQQ concentration 0.1 (Micro Moles)); 142 in assay [3] (PQQ concentration 0.2 (Micro Moles), 0.2 µM); 150 in assay [3] (PQQ concentration 0.5 (Micro Moles), 0.5 µM); 158 in assay [3] (PQQ concentration 0.9 (Micro Moles), 0.9 µM); 174 in assay [3] (PQQ concentration 6.0 (Micro Moles), 6 µM); 192 in assay [3] (PQQ concentration 15.0 (Micro Moles), 15 µM).
